Results on 39 compounds are retold here after patent publication US20240246937A1 (MERCK SHARP & DOHME LLC, priority 2021, published 2024).

What is called EC50 is the concentration that produces a half-maximal response.

The target in this assay is recombinant IL4I1 (Homo sapiens (Human), UniProt Q96RQ9). Briefly: IL4I1 Enzymatic Assay (Amplex Red/HRP coupled fluorescence detection of H2O2). Format: biochemical. To be noted: 240 min; recombinant IL4I1, four-hour pre-incubation with compound. In a few lines: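 Recombinant human IL4I1 (1 nM final) pre-incubated 4 h with compound at ambient temperature in 50 mM Hepes pH 7.0, 0.005% Tween20. Started with 1 mM each Phe/Tyr/Trp plus Amplex Red/HRP; H2O2-derived resorufin fluorescence read after 120 min; EC50 from ten-point 1:3 titration, four-parameter fit.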
recombinant IL4I1, sequence (Q96RQ9 22-567): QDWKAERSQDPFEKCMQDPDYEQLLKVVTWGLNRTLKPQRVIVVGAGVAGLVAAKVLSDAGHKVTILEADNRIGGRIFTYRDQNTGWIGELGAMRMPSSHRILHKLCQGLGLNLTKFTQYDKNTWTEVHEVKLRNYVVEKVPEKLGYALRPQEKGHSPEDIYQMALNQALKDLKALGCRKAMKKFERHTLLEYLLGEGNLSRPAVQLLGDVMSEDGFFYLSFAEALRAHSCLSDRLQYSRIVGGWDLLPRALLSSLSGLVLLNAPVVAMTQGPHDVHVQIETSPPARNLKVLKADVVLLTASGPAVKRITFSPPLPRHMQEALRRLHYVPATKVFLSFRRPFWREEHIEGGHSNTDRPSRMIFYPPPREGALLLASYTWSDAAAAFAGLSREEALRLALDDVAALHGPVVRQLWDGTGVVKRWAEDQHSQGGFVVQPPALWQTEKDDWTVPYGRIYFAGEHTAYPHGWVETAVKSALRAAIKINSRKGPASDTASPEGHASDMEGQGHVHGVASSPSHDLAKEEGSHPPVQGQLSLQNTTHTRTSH
`O=C1C(=O)N(C2CCC2)CCN1Cc1cc(-c2ccccc2F)no1` [Example 149, 1-cyclobutyl-4-((3-(2-fluorophenyl)isoxazol-5-yl)methyl)piperazine-2,3-dione]: the EC50 came to 3 nM. Take `O=C1C(=O)N(C2CCC2)CCN1Cc1cc(-c2ccc(F)cc2)no1` [Example 150, 1-cyclobutyl-4-((3-(4-fluorophenyl)isoxazol-5-yl)methyl)piperazine-2,3-dione]: the EC50 was 3 nM. In the case of `O=c1c(=O)n(C2CCC2)ccn1Cc1cc(-c2ccccc2)no1` [Example 151, 1-cyclobutyl-4-((3-phenylisoxazol-5-yl)methyl)-1,4-dihydropyrazine-2,3-dione], the EC50 was found to be 1 nM. As for `O=c1c(=O)n(C2CCC2)ccn1Cc1cc(-c2ccccc2F)no1` [Example 152, 1-cyclobutyl-4-((3-(2-fluorophenyl)isoxazol-5-yl)methyl)-1,4-dihydropyrazine-2,3-dione], the concentration for a half-maximal effect (EC50) was determined as 2 nM. In the case of `O=C1C(=O)N(C2CCCC2)CCN1Cc1cc(-c2cccc(F)c2)no1` [Example 153, 1-cyclopentyl-4-((3-(3-fluorophenyl)isoxazol-5-yl)methyl)piperazine-2,3-dione], the EC50 came to 3 nM. For `O=C1C(=O)N(C2CCCC2)CCN1Cc1cc(-c2ccccc2F)no1` [Example 154, 1-cyclopentyl-4-((3-(2-fluorophenyl)isoxazol-5-yl)methyl)piperazine-2,3-dione], the EC50 amounted to 3 nM. `O=c1c(=O)n(C2CCCC2)ccn1Cc1cc(-c2cccc(F)c2)no1` [Example 155, 1-cyclopentyl-4-((3-(3-fluorophenyl)isoxazol-5-yl)methyl)-1,4-dihydropyrazine-2,3-dione]: the EC50 stood at 2 nM. In the case of `O=c1c(=O)n(C2CCCC2)ccn1Cc1cc(-c2ccccc2F)no1` [Example 156, 1-cyclopentyl-4-((3-(2-fluorophenyl)isoxazol-5-yl)methyl)-1,4-dihydropyrazine-2,3-dione], the EC50 was determined as 2 nM.

As to `O=c1c(=O)n(C2CCC2)ccn1Cc1cc(-c2cccc(F)c2)no1` [Example 157, 1-cyclobutyl-4-((3-(3-fluorophenyl)isoxazol-5-yl)methyl)-1,4-dihydropyrazine-2,3-dione], the EC50 stood at 1 nM. The figure for `O=C1C(=O)N(C2CCC2)CCN1Cc1cc(-c2cccc(F)c2)no1` [Example 158, 1-cyclobutyl-4-((3-(3-fluorophenyl)isoxazol-5-yl)methyl)piperazine-2,3-dione] is 4 nM. Consider `O=c1c(=O)n(C2CCC2)ccn1Cc1cc(-c2ccc(F)cc2)no1` [Example 159, 1-cyclobutyl-4-((3-(4-fluorophenyl)isoxazol-5-yl)methyl)-1,4-dihydropyrazine-2,3-dione], for which the EC50 was determined as 1 nM. Turning to `O=c1c(=O)n(C2CCC2)ccn1Cc1cnn(-c2ccccc2)c1` [Example 160, 1-cyclobutyl-4-((1-phenyl-1H-pyrazol-4-yl)methyl)-1,4-dihydropyrazine-2,3-dione], the concentration giving a half-maximal response (EC50) was 5 nM.

As for `O=c1c(=O)n(C2CCC2)ccn1Cc1cc(-c2ccccn2)no1` [Example 161, 1-cyclobutyl-4-((3-(pyridin-2-yl)isoxazol-5-yl)methyl)-1,4-dihydropyrazine-2,3-dione], the EC50 came to 5 nM.

Turning to `O=C1C(=O)N(C2CCCC2)CCN1Cc1cc(-c2ccc(F)cc2)no1` [Example 162, 1-cyclopentyl-4-((3-(4-fluorophenyl)isoxazol-5-yl)methyl)piperazine-2,3-dione], the EC50 was found to be 4 nM. As for `O=c1c(=O)n(C2CCCC2)ccn1Cc1cc(-c2ccccn2)no1` [Example 163, 1-cyclopentyl-4-((3-(pyridin-2-yl)isoxazol-5-yl)methyl)-1,4-dihydropyrazine-2,3-dione], the EC50 is 6 nM. For the compound `O=c1c(=O)n(C2CCCC2)ccn1Cc1cc(-c2ccc(F)cc2)no1` [Example 164, 1-cyclopentyl-4-((3-(4-fluorophenyl)isoxazol-5-yl)methyl)-1,4-dihydropyrazine-2,3-dione], the EC50 turned out to be 1 nM. `O=c1c(=O)n(C2CCC2)ccn1Cc1cc(-c2ccccc2)ns1` [Example 165]: the EC50 stood at 12 nM. For `CC1(N2CCN(Cc3nnc(-c4ccccc4)s3)C(=O)C2=O)CCC1` [Example 166, 1-(1-methylcyclobutyl)-4-((5-phenyl-1,3,4-thiadiazol-2-yl)methyl)piperazine-2,3-dione], the EC50 was 10 nM.

For the compound `CC1(N2CCN(Cc3cc(-c4ccccc4)on3)C(=O)C2=O)CCC1` [Example 167, 1-(1-methylcyclobutyl)-4-((5-phenylisoxazol-3-yl)methyl)piperazine-2,3-dione], the EC50 was found to be 9 nM. The figure for `O=c1c(=O)n(C2CCC2)ccn1Cc1cc(-c2ccccc2)n[nH]1` [Example 168, 1-cyclobutyl-4-((3-phenyl-1H-pyrazol-5-yl)methyl)-1,4-dihydropyrazine-2,3-dione] is 6 nM; for `O=c1c(=O)n(C23CC(C2)C3)ccn1Cc1cc(-c2ccccn2)on1` [Example 169, 1-(bicyclo[1.1.1]pentan-1-yl)-4-((5-(pyridin-2-yl)isoxazol-3-yl)methyl)-1,4-dihydropyrazine-2,3-dione] it is 7 nM. The figure for `O=C1C(=O)N([C@H]2C[C@H]3C[C@H]3C2)CCN1Cc1cc(-c2ccccc2)no1` [Example 170, 1-((cis)-bicyclo[3.1.0]hexan-3-yl)-4-((3-phenylisoxazol-5-yl)methyl)piperazine-2,3-dione] is 4 nM; for `O=C1C(=O)N(C23CC(C2)C3)CCN1Cc1cc(-c2ccccc2)no1` [Example 171, 1-(bicyclo[1.1.1]pentan-1-yl)-4-((3-phenylisoxazol-5-yl)methyl)piperazine-2,3-dione] it is 6 nM. Turning to `O=c1c(=O)n(C23CC(C2)C3)ccn1Cc1cc(-c2ccccn2)no1` [Example 172, 1-(bicyclo[1.1.1]pentan-1-yl)-4-((3-(pyridin-2-yl)isoxazol-5-yl)methyl)-1,4-dihydropyrazine-2,3-dione], the EC50 turned out to be 7 nM. As to `O=c1c(=O)n(C2CCC2)ccn1Cc1cc(-c2ccccc2)sn1` [Example 173, 1-cyclobutyl-4-((5-phenylisothiazol-3-yl)methyl)-1,4-dihydropyrazine-2,3-dione], the EC50 amounted to 14 nM. In the case of `O=C1C(=O)N(C2CCC2)CCN1Cc1cn(-c2ccccc2)cn1` [Example 174, 1-cyclobutyl-4-((1-phenyl-1H-imidazol-4-yl)methyl)piperazine-2,3-dione], the EC50 was 39 nM.

Turning to `O=c1c(=O)n(C2CCC2)ccn1Cc1cn(-c2ccccc2)cn1` [Example 175, 1-cyclobutyl-4-((1-phenyl-1H-imidazol-4-yl)methyl)-1,4-dihydropyrazine-2,3-dione], the EC50 came to 14 nM.

In the case of `O=C1C(=O)N(C2CCC2)CCN1Cc1ccc(-n2ncnn2)cn1` [Example 176, 1-((5-(2H-tetrazol-2-yl)pyridin-2-yl)methyl)-4-cyclobutylpiperazine-2,3-dione], the EC50 stood at 40 nM. On to `O=C1C(=O)N(C2CCC2)CCN1CC12CC(c3ccccn3)(C1)C2` [Example 177, 1-cyclobutyl-4-((3-(pyridin-2-yl)bicyclo[1.1.1]pentan-1-yl)methyl)piperazine-2,3-dione], for which the EC50 was 84 nM.

For the compound `CC1CN(Cc2ccc(-n3nccn3)cn2)C(=O)C(=O)N1C1CCC1` (stereo not drawn) [Example 178, 1-((5-(2H-1,2,3-triazol-2-yl)pyridin-2-yl)methyl)-4-cyclobutyl-5-methylpiperazine-2,3-dione], the EC50 was 52 nM. As for `O=C1C(=O)N(C23CC(C2)C3)CCN1Cc1nnc(-c2ccccc2Cl)s1` [Example 179, 1-(bicyclo[1.1.1]pentan-1-yl)-4-((5-(2-chlorophenyl)-1,3,4-thiadiazol-2-yl)methyl)piperazine-2,3-dione], the EC50 amounted to 13 nM.

As for `CC1(n2ccn(Cc3cc(-c4ccccc4)no3)c(=O)c2=O)CCC1` [Example 181, 1-(1-methylcyclobutyl)-4-((3-phenylisoxazol-5-yl)methyl)-1,4-dihydropyrazine-2,3-dione], the EC50 was 10 nM. `O=C1C(=O)N(C2CC3CC2C3)CCN1Cc1ccc(-c2ccccc2)nn1` (stereo not drawn) [Example 183, 1-(bicyclo[2.1.1]hexan-2-yl)-4-((6-phenylpyridazin-3-yl)methyl)piperazine-2,3-dione]: the EC50 was 24 nM. Consider `O=C1C(=O)N(C2CC3CC2C3)CCN1Cc1ccc(-c2ccccc2F)nn1` (stereo not drawn) [Example 184, 1-(bicyclo[2.1.1]hexan-2-yl)-4-((6-(2-fluorophenyl)pyridazin-3-yl)methyl)piperazine-2,3-dione], for which the EC50 was found to be 25 nM. In the case of `CC1(N2CCN(Cc3cc(-c4cccc(F)c4)no3)C(=O)C2=O)CCC1` [Example 185, 1-((3-(3-fluorophenyl)isoxazol-5-yl)methyl)-4-(1-methylcyclobutyl)piperazine-2,3-dione], the EC50 was 8 nM. With `CC1(n2ccn(Cc3cc(-c4cccc(F)c4)no3)c(=O)c2=O)CCC1` [Example 186, 1-((3-(3-fluorophenyl)isoxazol-5-yl)methyl)-4-(1-methylcyclobutyl)-1,4-dihydropyrazine-2,3-dione], the EC50 was found to be 4 nM. The figure for `O=c1c(=O)n(C23CC(C2)C3)ccn1Cc1cc(-c2nccs2)on1` [Example 187, 1-(bicyclo[1.1.1]pentan-1-yl)-4-((5-(thiazol-2-yl)isoxazol-3-yl)methyl)-1,4-dihydropyrazine-2,3-dione] is 8 nM; for `CC1(N2CCN(Cc3cc(-c4ccc(F)cc4)no3)C(=O)C2=O)CCC1` [Example 188, 1-((3-(4-fluorophenyl)isoxazol-5-yl)methyl)-4-(1-methylcyclobutyl)piperazine-2,3-dione] it is 10 nM. On to `CC1(n2ccn(Cc3cc(-c4ccc(F)cc4)no3)c(=O)c2=O)CCC1` [Example 189, 1-((3-(4-fluorophenyl)isoxazol-5-yl)methyl)-4-(1-methylcyclobutyl)-1,4-dihydropyrazine-2,3-dione], for which the EC50 was determined as 4 nM.
